For orientation: inhibition means the relative decrease from the control value, in per cent. Broadly, the IC50 is the concentration that inhibits the measured activity by half.

What all share (assay type): biochemical
Experiment [1] has as its target T1, Cat sEH (Felis catus, UniProt A0ABI7ZL20). The experiment in a line: Primary screen (end point) of the sEH inhibitor library, PHOME substrate. The settings on record: read-out: Cat sEH Inhibition (%) P. How it is done: Primary screening of the library was performed with an inhibitor concentration of 100 nM using PHOME as substrate ([22]). […] The plates were then mixed and incubated at 30°C for 5 min. Across each plate, 30 μL of the working substrate solution (270 μL of 5 mM PHOME solution in DMSO diluted with 3,680 μL of buffer) were added quickly to yield [S]final: 50 μM. Each plate was further incubated at room temperature (horse sEH: 60 min; cat sEH: 45 min; dog sEH: 30 min).

The target in experiment [2] is T2, Horse sEH (Equus caballus, UniProt F7C407). The experiment in a line: Secondary screen (kinetic mode), PHOME substrate. Particulars: [I] = 100 nM, secondary kinetic mode screening; read-out: Horse sEH Inhibition (%) S.
T2 sequence (F7C407 entry or part of it): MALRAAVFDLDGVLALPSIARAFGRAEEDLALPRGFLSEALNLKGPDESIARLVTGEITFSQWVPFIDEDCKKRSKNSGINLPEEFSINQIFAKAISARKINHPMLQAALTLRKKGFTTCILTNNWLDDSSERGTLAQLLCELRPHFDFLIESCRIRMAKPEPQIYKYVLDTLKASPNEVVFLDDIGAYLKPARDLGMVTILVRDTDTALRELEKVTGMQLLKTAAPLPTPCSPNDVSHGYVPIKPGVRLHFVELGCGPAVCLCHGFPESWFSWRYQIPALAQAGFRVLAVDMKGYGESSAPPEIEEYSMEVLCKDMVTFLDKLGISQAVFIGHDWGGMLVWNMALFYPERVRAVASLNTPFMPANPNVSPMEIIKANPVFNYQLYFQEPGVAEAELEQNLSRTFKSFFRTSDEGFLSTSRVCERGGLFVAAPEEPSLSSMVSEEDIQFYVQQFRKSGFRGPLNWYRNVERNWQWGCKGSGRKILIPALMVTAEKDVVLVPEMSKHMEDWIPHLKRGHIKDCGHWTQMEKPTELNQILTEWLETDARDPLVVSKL
Experiment [3] deals with T1, Cat sEH. The experiment in a line: Secondary screen (kinetic mode), PHOME substrate. Particulars: read-out: Cat sEH Inhibition (%) S.
Experiment [4] has as its target T3, Dog sEH (Canis lupus familiaris, UniProt A0A8I3NJL8).
T3 sequence (A0A8I3NJL8 1-556): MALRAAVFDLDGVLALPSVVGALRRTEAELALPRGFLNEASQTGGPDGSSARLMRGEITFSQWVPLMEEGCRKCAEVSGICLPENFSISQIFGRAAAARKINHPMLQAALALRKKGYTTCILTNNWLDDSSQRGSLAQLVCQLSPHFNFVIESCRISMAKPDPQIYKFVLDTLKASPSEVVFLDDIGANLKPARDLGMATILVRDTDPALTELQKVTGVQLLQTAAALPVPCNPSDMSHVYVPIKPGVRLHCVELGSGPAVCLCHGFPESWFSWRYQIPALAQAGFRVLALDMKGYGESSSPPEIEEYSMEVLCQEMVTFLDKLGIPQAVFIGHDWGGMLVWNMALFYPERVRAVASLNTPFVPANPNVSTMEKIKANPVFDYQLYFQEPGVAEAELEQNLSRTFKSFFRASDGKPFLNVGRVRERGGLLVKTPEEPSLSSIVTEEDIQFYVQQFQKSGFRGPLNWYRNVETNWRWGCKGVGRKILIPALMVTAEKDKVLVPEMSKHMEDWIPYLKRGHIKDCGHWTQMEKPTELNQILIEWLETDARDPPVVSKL
The experiment can be described thus: Secondary screen (kinetic mode), PHOME substrate. Particulars: [I] = 100 nM, secondary kinetic mode screening; read-out: Dog sEH Inhibition (%) S.

Experiment [5] deals with T2, Horse sEH. The settings on record: CMNPC ([S]final = 5 μM) as substrate; average ± standard deviation (n = 3). How it is done: The sEH activity from the cat, dog and horse liver was further purified to eliminate contaminating esterase activity that could interfere with the screening fluorescent assay ([16]). The cytosolic fraction was loaded on a Q-Sepharose column (100 mL) equilibrated with sodium phosphate buffer (20 mM pH 7.4). After washing of the bound proteins, the sEH activity was eluted with a step gradient of NaCl (0–1 M). The fractions containing the sEH activity were pooled and concentrated using a Centriprep-30. The concentrates were aliquoted and flash frozen, then kept frozen at −80°C until usage. […] Protein concentration was quantified using the Pierce BCA assay (Pierce, Rockford, IL), using Fraction V bovine serum albumin (BSA) as the calibrating standard.
The IC50 values reported herein were determined using either a fluorescent based assay (CMNPC as substrate) for purified enzyme preparations or a radioactive based assay ([^3H]t-DPPO as substrate) for crude enzyme preparations ([20]). The fluorescent assay was used with the purified proteins. […] The substrate (CMNPC) was then added ([S]final = 5 μM). […] The radioactive […] assay was used with the liver crude extracts. […]

Experiment [6] has as its target T1, Cat sEH. The experiment can be described thus: sEH inhibition potency (IC50), fluorescent assay with CMNPC, partially purified enzyme. Particulars: CMNPC ([S]final = 5 μM) as substrate; average ± standard deviation (n = 3).
Protocol: The IC50 values reported herein were determined using either a fluorescent based assay (CMNPC as substrate) for purified enzyme preparations or a radioactive based assay ([^3H]t-DPPO as substrate) for crude enzyme preparations ([20]). The fluorescent assay was used with the purified proteins. […] The substrate (CMNPC) was then added ([S]final = 5 μM). […] Assays were performed in triplicate.
For experiment [7], the target named is T4, sEH activity from liver cytosol of Rat (Rattus norvegicus, UniProt P80299).
T4 construct: The radioactive fluorescent assay was used with the liver crude extracts; from tissue; host or cells: rat liver cytosol (100,000 g supernatant)
T4 sequence (P80299 1-554): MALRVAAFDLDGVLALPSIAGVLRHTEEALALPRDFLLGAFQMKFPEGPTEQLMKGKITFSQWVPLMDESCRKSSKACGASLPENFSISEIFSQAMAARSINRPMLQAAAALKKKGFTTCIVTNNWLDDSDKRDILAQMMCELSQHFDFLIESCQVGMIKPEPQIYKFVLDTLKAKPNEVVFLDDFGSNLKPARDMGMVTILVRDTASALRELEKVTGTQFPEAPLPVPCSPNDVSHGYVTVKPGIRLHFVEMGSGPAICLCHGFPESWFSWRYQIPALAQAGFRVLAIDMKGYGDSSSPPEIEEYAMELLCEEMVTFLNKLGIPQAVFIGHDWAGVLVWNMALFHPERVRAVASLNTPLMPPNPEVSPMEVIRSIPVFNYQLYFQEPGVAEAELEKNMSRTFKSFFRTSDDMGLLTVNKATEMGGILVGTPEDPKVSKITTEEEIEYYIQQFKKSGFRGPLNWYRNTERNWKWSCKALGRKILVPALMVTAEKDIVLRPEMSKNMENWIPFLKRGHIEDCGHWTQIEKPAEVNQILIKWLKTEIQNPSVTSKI
The experiment in a line: sEH inhibition potency (IC50), radioactive assay with [3H]t-DPPO, liver cytosol. The text has this:
Fresh liver tissues samples (5–30 g) were collected promptly after death from healthy adult cat, dog and horse euthanized for reasons unrelated to this study, and whose bodies were given to science by the owners in line with federal regulations and protocol approved by the Institutional Animal Care and Use Committee at University of California Davis. Similarly, tissues from the other animals tested herein were collected from healthy animals immediately after being slaughter at the university abattoir. Because no animals were directly used or killed for this study, sample collections were exempted from approval by the Institutional Animal Care and Use Committee of the University of California Davis and Michigan State University. […] The tissues were flash-frozen in liquid nitrogen following removal, and then kept at −80°C until used. After thawing on ice, the samples were homogenized in chilled sodium phosphate buffer (20 mM pH 7.4) containing 5 mM EDTA, 1 mM DTT and 1 mM PMSF (tissue weight:buffer volume ratio 1:4). These homogenates were centrifuged at 100,000 g for 60 min at 4°C. The supernatant (the cytosolic fraction) was separated from the pellet, aliquoted and flash frozen in liquid nitrogen, then kept frozen at −80°C until usage.
The IC50 values reported herein were determined using either a fluorescent based assay (CMNPC as substrate) for purified enzyme preparations or a radioactive based assay ([^3H]t-DPPO as substrate) for crude enzyme preparations ([20]). The fluorescent assay was used with the purified proteins. […] The substrate (CMNPC) was then added ([S]final = 5 μM). […] The radioactive […] assay was used with the liver crude extracts. Extracts were incubated with inhibitors ([I]final = 1–1,000 nM) at 30° C for 5 min in sodium phosphate buffer (pH 7.4) containing 0.1 mg/mL of BSA and 1% of DMSO, prior to substrate introduction ([^3H]t-DPPO [S]final: 50 μM; ~12,000 dpm/assay). The enzymes were incubated at 30°C for 10 min, and the reaction was quenched by the addition of 60 μL methanol and 200 μL isooctane, which extracts the remaining epoxide from the aqueous phase. […] Assays were performed in triplicate.

[8] abbreviates: liver cytosol, [3H]t-DPPO ([S]final = 5 μM) as substrate, read-out: IC50 (nM) Rat.

Where two headings read alike, the source gives them in different places.

T1 sequence (A0ABI7ZL20 entry or part of it): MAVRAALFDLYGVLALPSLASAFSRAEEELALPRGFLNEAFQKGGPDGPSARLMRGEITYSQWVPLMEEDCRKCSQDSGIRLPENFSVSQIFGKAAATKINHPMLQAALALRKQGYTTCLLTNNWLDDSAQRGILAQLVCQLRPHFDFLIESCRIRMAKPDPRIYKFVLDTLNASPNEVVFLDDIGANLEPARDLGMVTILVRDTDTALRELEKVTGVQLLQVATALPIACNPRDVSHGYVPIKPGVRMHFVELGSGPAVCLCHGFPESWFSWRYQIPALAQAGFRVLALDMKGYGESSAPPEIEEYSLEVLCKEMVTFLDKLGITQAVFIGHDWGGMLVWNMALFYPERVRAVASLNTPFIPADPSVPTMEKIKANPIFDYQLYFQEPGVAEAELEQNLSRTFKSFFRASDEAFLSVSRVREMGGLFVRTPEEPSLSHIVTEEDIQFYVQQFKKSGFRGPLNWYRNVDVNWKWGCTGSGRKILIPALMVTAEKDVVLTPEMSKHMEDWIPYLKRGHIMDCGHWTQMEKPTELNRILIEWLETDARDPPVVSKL

Take `O=C(NCCCCOc1ccc(F)cc1)NC12CC3CC(CC(C3)C1)C2` [1,707]: the inhibition at 0.1 µM in experiment [1] came to 94%; in experiment [2] it was 87%; in experiment [3], 99%; in experiment [4] it was 83%. Also, the IC50 amounted to 0.5 ± 0.03 nM in experiment [5], 0.5 ± 0.02 nM in experiment [6] and 7 nM in experiment [7] (setting [8]).

As for `O=C(Nc1ccc(OC(F)(F)F)cc1)N[C@H]1CC[C@H](Oc2ccc(C(=O)O)cc2)CC1` [1,728, trans-4-{4-[3-(4-trifluoromethoxy-phenyl)-ureido]-cyclohexyloxy}-benzoic acid], in experiment [7], the IC50 was 6 nM.

For `N#CNC(=O)CCCCCCCCCCCNC(=O)NC12CC3CC(CC(C3)C1)C2` [1,845], the inhibition at 0.1 µM in experiment [1] stood at 101%; in experiment [2], 88%; in experiment [3] it was 104%; in experiment [4], 83%. The IC50 in experiment [5] stood at 0.4 ± 0.01 nM; in experiment [6], 0.4 ± 0.01 nM; in experiment [7] (setting [8]), 12 nM.
